The results in this text go back to the supplement of paper PMC10307832.

Holding throughout (assay): relative viability (nuclei count vs DMSO), 5 days (fraction); higher = more cells survive
Compound in the test “Cediranib + Navitoclax”: COc1cc2c(Oc3ccc4[nH]c(C)cc4c3F)ncnc2cc1OCCCN1CCCC1 [Cediranib] + CC1(C)CCC(c2ccc(Cl)cc2)=C(CN2CCN(c3ccc(C(=O)NS(=O)(=O)c4ccc(N[C@H](CCN5CCOCC5)CSc5ccccc5)c(S(=O)(=O)C(F)(F)F)c4)cc3)CC2)C1 [Navitoclax] (partner 0.5 µM)
Summed up: (§1)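 For relative viability, nuclei counts in treated wells were divided by those in vehicle wells. Lung cancer cell lines had been pin-tool dosed in 1536-well plates the day after seeding and cultured for 5 days, then fixed and stained in one step (final 0.05% Triton X-100, 1% formaldehyde, 1 ug/ml Hoechst) and imaged at 4×. Doses were one drug alone or a fixed anchor-drug dose plus five library-drug doses (not always all listed) in √10 steps, and values are duplicate-plate medians.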

Compound in the test “Decitabine + Alpelisib”: Nc1ncn([C@H]2C[C@H](O)[C@@H](CO)O2)c(=O)n1 [Decitabine] + Cc1nc(NC(=O)N2CCC[C@H]2C(N)=O)sc1-c1ccnc(C(C)(C)C(F)(F)F)c1 [Alpelisib] (partner 2 µM)
In outline: as §1

Compound in the test “Decitabine + Pemetrexed”: Nc1ncn([C@H]2C[C@H](O)[C@@H](CO)O2)c(=O)n1 [Decitabine] + Nc1nc2[nH]cc(CCc3ccc(C(=O)N[C@@H](CCC(=O)O)C(=O)O)cc3)c2c(=O)[nH]1 [Pemetrexed] (partner 0.2 µM)
In outline: as §1

Compound in the test “Cediranib + OSI-027”: COc1cc2c(Oc3ccc4[nH]c(C)cc4c3F)ncnc2cc1OCCCN1CCCC1 [Cediranib] + COc1cccc2cc(-c3nc([C@H]4CC[C@H](C(=O)O)CC4)n4ncnc(N)c34)[nH]c12 [OSI-027] (partner 0.5 µM)
Summed up:
as §1

In the case of Calu-6, the relative viability with Cediranib + Navitoclax (first compound 0.04 µM) came to 0.876; in the test with Cediranib + Navitoclax (first compound 0.1265 µM) it was 0.86; in the test with Cediranib + Navitoclax (first compound 0.4 µM), 0.898; with Cediranib + Navitoclax (first compound 1.265 µM) it was 0.788; with Cediranib + Navitoclax (first compound 4 µM), 0.819; with Decitabine + Alpelisib (first compound 0.04 µM), 0.736. Also, the relative viability turned out to be 0.681 with Decitabine + Alpelisib (first compound 0.1265 µM), 0.547 in the test with Decitabine + Alpelisib (first compound 0.4 µM), 0.322 with Decitabine + Alpelisib (first compound 1.265 µM) and 0.279 in the test with Decitabine + Alpelisib (first compound 4 µM).
As to ChaGo-K-1, the relative viability amounted to 1.02 with Cediranib + Navitoclax (first compound 0.04 µM); 0.952 with Cediranib + Navitoclax (first compound 0.4 µM); 1.23 in the test with Cediranib + Navitoclax (first compound 1.265 µM); 0.83 with Cediranib + Navitoclax (first compound 4 µM); 0.27 in the test with Decitabine + Pemetrexed (first compound 0.04 µM); 0.261 with Decitabine + Pemetrexed (first compound 0.1265 µM). Further, the relative viability was 0.253 in the test with Decitabine + Pemetrexed (first compound 0.4 µM); 0.251 with Decitabine + Pemetrexed (first compound 1.265 µM); 0.269 with Decitabine + Pemetrexed (first compound 4 µM); 0.441 in the test with Cediranib + OSI-027 (first compound 0.04 µM); 0.363 in the test with Cediranib + OSI-027 (first compound 0.1265 µM); 0.535 with Cediranib + OSI-027 (first compound 0.4 µM). For the same cell line, the relative viability with Cediranib + OSI-027 (first compound 1.265 µM) came to 0.572; with Cediranib + OSI-027 (first compound 4 µM), 0.615.
Consider EBC-1, for which the relative viability turned out to be 0.388 in the test with Cediranib + Navitoclax (first compound 0.04 µM); 0.441 with Cediranib + Navitoclax (first compound 0.1265 µM); 0.37 in the test with Cediranib + Navitoclax (first compound 0.4 µM); 0.52 with Cediranib + Navitoclax (first compound 1.265 µM); 0.455 with Cediranib + Navitoclax (first compound 4 µM); 0.516 in the test with Decitabine + Alpelisib (first compound 0.04 µM). The relative viability with Decitabine + Alpelisib (first compound 0.1265 µM) came out at 0.453; in the test with Decitabine + Alpelisib (first compound 0.4 µM) it was 0.421; with Decitabine + Alpelisib (first compound 1.265 µM), 0.305; with Decitabine + Alpelisib (first compound 4 µM) it was 0.271.
For EKVX, the relative viability with Cediranib + Navitoclax (first compound 0.04 µM) turned out to be 1.01; with Cediranib + Navitoclax (first compound 0.1265 µM) it was 0.74; with Cediranib + Navitoclax (first compound 0.4 µM), 0.912; in the test with Cediranib + Navitoclax (first compound 1.265 µM), 0.903; with Cediranib + Navitoclax (first compound 4 µM), 1.02; with Decitabine + Pemetrexed (first compound 0.04 µM), 0.281. The relative viability was 0.369 with Decitabine + Pemetrexed (first compound 0.1265 µM); 0.255 with Decitabine + Pemetrexed (first compound 0.4 µM); 0.205 with Decitabine + Pemetrexed (first compound 1.265 µM); 0.194 in the test with Decitabine + Pemetrexed (first compound 4 µM); 0.635 in the test with Decitabine + Alpelisib (first compound 0.04 µM); 0.565 with Decitabine + Alpelisib (first compound 0.1265 µM). Also, the relative viability with Decitabine + Alpelisib (first compound 0.4 µM) turned out to be 0.522; with Decitabine + Alpelisib (first compound 1.265 µM) it was 0.393; in the test with Decitabine + Alpelisib (first compound 4 µM), 0.318; with Cediranib + OSI-027 (first compound 0.04 µM), 0.759; with Cediranib + OSI-027 (first compound 0.1265 µM), 0.809; with Cediranib + OSI-027 (first compound 0.4 µM) it was 0.681. In addition, the relative viability turned out to be 0.684 in the test with Cediranib + OSI-027 (first compound 1.265 µM) and 0.723 with Cediranib + OSI-027 (first compound 4 µM).
Consider EMC-BAC-2, for which the relative viability with Cediranib + Navitoclax (first compound 0.04 µM) worked out at 1.3; in the test with Cediranib + Navitoclax (first compound 0.1265 µM) it was 1.16; with Cediranib + Navitoclax (first compound 0.4 µM), 1.12; with Cediranib + Navitoclax (first compound 1.265 µM) it was 1.17; in the test with Cediranib + Navitoclax (first compound 4 µM) it was 1.06; with Decitabine + Pemetrexed (first compound 0.1265 µM) it was 0.407. Moreover, the relative viability with Decitabine + Pemetrexed (first compound 0.4 µM) worked out at 0.412; with Decitabine + Pemetrexed (first compound 1.265 µM), 0.36; with Decitabine + Pemetrexed (first compound 4 µM) it was 0.354; in the test with Decitabine + Alpelisib (first compound 0.04 µM) it was 0.718; with Decitabine + Alpelisib (first compound 0.1265 µM) it was 0.699; with Decitabine + Alpelisib (first compound 0.4 µM), 0.481. In addition, the relative viability in the test with Decitabine + Alpelisib (first compound 1.265 µM) stood at 0.442; with Decitabine + Alpelisib (first compound 4 µM) it was 0.41; with Cediranib + OSI-027 (first compound 0.04 µM), 0.377; with Cediranib + OSI-027 (first compound 0.1265 µM), 0.503; in the test with Cediranib + OSI-027 (first compound 0.4 µM) it was 0.38; with Cediranib + OSI-027 (first compound 1.265 µM) it was 0.319. For the same cell line, the relative viability with Cediranib + OSI-027 (first compound 4 µM) amounted to 0.367.
Consider EPLC-272H, for which the relative viability with Cediranib + Navitoclax (first compound 0.04 µM) worked out at 1.35; with Cediranib + Navitoclax (first compound 0.4 µM), 1.05; with Cediranib + Navitoclax (first compound 1.265 µM) it was 1.15; with Cediranib + Navitoclax (first compound 4 µM), 1.27; with Decitabine + Pemetrexed (first compound 0.04 µM), 0.346; with Decitabine + Pemetrexed (first compound 0.1265 µM), 0.256. In addition, the relative viability in the test with Decitabine + Pemetrexed (first compound 1.265 µM) turned out to be 0.339; with Decitabine + Pemetrexed (first compound 4 µM), 0.27; with Decitabine + Alpelisib (first compound 0.04 µM), 0.723; in the test with Decitabine + Alpelisib (first compound 0.1265 µM), 0.688; in the test with Decitabine + Alpelisib (first compound 1.265 µM), 0.606; in the test with Decitabine + Alpelisib (first compound 4 µM), 0.525. Further, the relative viability turned out to be 0.288 in the test with Cediranib + OSI-027 (first compound 0.04 µM), 0.287 in the test with Cediranib + OSI-027 (first compound 0.4 µM) and 0.232 with Cediranib + OSI-027 (first compound 4 µM).
On to H3255, for which the relative viability worked out at 0.673 with Cediranib + Navitoclax (first compound 0.04 µM); 0.429 with Cediranib + Navitoclax (first compound 0.1265 µM); 0.447 with Cediranib + Navitoclax (first compound 0.4 µM); 0.453 in the test with Cediranib + Navitoclax (first compound 1.265 µM); 0.376 in the test with Cediranib + Navitoclax (first compound 4 µM); 0.453 with Decitabine + Pemetrexed (first compound 0.04 µM). The relative viability with Decitabine + Pemetrexed (first compound 0.1265 µM) is 0.547; with Decitabine + Pemetrexed (first compound 0.4 µM), 0.446; with Decitabine + Pemetrexed (first compound 1.265 µM), 0.486; with Decitabine + Pemetrexed (first compound 4 µM), 0.453; with Decitabine + Alpelisib (first compound 0.04 µM) it was 0.222; in the test with Decitabine + Alpelisib (first compound 0.1265 µM) it was 0.579. Moreover, the relative viability with Decitabine + Alpelisib (first compound 0.4 µM) was determined as 0.358; in the test with Decitabine + Alpelisib (first compound 1.265 µM) it was 0.428; in the test with Decitabine + Alpelisib (first compound 4 µM) it was 0.436; with Cediranib + OSI-027 (first compound 0.04 µM), 0.658; with Cediranib + OSI-027 (first compound 0.4 µM), 0.638; with Cediranib + OSI-027 (first compound 1.265 µM), 0.58. In addition, the relative viability with Cediranib + OSI-027 (first compound 4 µM) came out at 0.533.
As for HARA, the relative viability with Cediranib + Navitoclax (first compound 0.04 µM) was 1.16; in the test with Cediranib + Navitoclax (first compound 0.1265 µM), 1.03; in the test with Cediranib + Navitoclax (first compound 0.4 µM), 1.15; with Cediranib + Navitoclax (first compound 1.265 µM), 1.14; in the test with Cediranib + Navitoclax (first compound 4 µM), 1.18; with Decitabine + Pemetrexed (first compound 0.04 µM), 0.2. Also, the relative viability with Decitabine + Pemetrexed (first compound 0.1265 µM) stood at 0.247; in the test with Decitabine + Pemetrexed (first compound 0.4 µM) it was 0.209; with Decitabine + Pemetrexed (first compound 1.265 µM), 0.202; with Decitabine + Pemetrexed (first compound 4 µM) it was 0.211; with Decitabine + Alpelisib (first compound 0.04 µM) it was 0.73; in the test with Decitabine + Alpelisib (first compound 0.1265 µM) it was 0.749. The relative viability in the test with Decitabine + Alpelisib (first compound 0.4 µM) turned out to be 0.474; with Decitabine + Alpelisib (first compound 1.265 µM), 0.365; with Decitabine + Alpelisib (first compound 4 µM) it was 0.249; with Cediranib + OSI-027 (first compound 0.04 µM), 0.367; with Cediranib + OSI-027 (first compound 0.4 µM), 0.446; with Cediranib + OSI-027 (first compound 1.265 µM), 0.353. Also, the relative viability in the test with Cediranib + OSI-027 (first compound 4 µM) stood at 0.657.
